According to publication PMC10916400, “Effect of the aggregated protein dye YAT2150 on Leishmania parasite viability” (Antimicrobial Agents and Chemotherapy, 2024):

Tests used:
[1] = test system: L. infantum promastigotes; test: microbe, parasite or virus in culture; format: cell-based, Leishmania infantum; conditions: L. infantum promastigotes; for IC50: in vitro
Procedure: L. infantum (MHOM/ES/2016/CATB101) promastigotes were maintained at 26°C in complete Schneider’s medium (Schneider’s insect medium supplemented with 10% FBS, 25 µg/mL gentamycin, 1% penicillin-streptomycin, and 1% sterile human urine, pH 6.7). For growth inhibition assays, promastigotes were used in the logarithmic growth phase, whereas for the infection of macrophages and generation of amastigotes they were used in the stationary phase. Axenic amastigotes were obtained following established protocols ([40], [57][–][59]); briefly, 1 × 10^7 promastigotes/mL in stationary phase were cultured in Schneider’s insect medium supplemented with 20% FBS, 25 µg/mL gentamycin, and 3.9 g/L of 2-(N-morpholino)ethanesulfonic acid, at pH 5.4 and 37°C. After 48 h, the typical rounded morphology of axenic amastigotes and their flagellum shortening could be observed. This culture was used within a week after its preparation.
In 96-well microtiter plates (Nunclon Delta surface; Thermo Fisher Scientific Inc.), serial dilutions (1:2) of the drugs or peptides were performed, either free or loaded in nanoformulations, in 100 µL of complete Schneider’s medium, to which one volume of 2 × 10^6 logarithmic growth-phase L. infantum promastigotes/mL in the same buffer was added. After 48 h, resazurin sodium salt was incorporated at a final concentration of 0.00125% and the plates were incubated at 26°C for another 24 h, when fluorescence from resorufin was measured as described above.

in vitro [2] = format: cell-based; conditions: human umbilical vein endothelial cells, 48 h
Procedure: Human umbilical vein endothelial cells were maintained in M-199 supplemented with 10% fetal bovine serum (FBS) and 1% penicillin-streptomycin at 37°C, 5% CO2, and seeded in 96-well plates at a density of 50,000 cells/mL. After allowing cell adherence for 24 h, the medium was removed, and drugs or nanoformulations were added in M-199 supplemented with 1% penicillin-streptomycin. Plates were incubated for 48 h, and then, the medium in each well was replaced by 100 µL of M-199 containing penicillin-streptomycin and 0.00125% resazurin sodium salt (Sigma-Aldrich Corporation). Plates were incubated for 4 h, and resorufin fluorescence emission was measured (λex/em: 535/590 nm) in a Tecan Infinite 200 PRO equipment (Tecan Trading AG).

[3] = Solubility screen assay (nephelometry); format: physicochemical; conditions: PBS with 1% DMSO; read-out: Aqueous solubility
Procedure: The stock solutions (10^‒2 M) of the assayed compounds were diluted to decreased molarity, from 300 μM to 0.1 µM, in a 384-well transparent plate (Greiner Bio-One, Madrid, Spain) with DMSO:PBS (1:99 vol/vol). After 2 h of incubation at 37°C, the plate was read in a NEPHELOstar Plus nephelometer (BMG LABTECH GmbH, Ortenberg, Germany) at 635 nm. The results were adjusted to a segmented regression to obtain the maximum concentration at which the compounds were soluble.

in vitro [4] = format: in vitro ADME; conditions: 37°C
Procedure: Plates (96-well Polypropylene Deep Well Plate; Corning Inc., Somerville, MA, US) containing 100 µL of 5 µM compounds in human plasma (Seralab, Granollers, Spain), pooled from healthy donors and extracted in citrate tubes, were incubated at 37°C for different times (0, 60, 120, and 360 min). Then, 300 µL ACN was added to precipitate plasma protein, and the plate was centrifuged at 4000 × g for 60 min at 4°C. For sample quantification, the resulting supernatant was taken and analyzed by ultra performance liquid chromatography with tandem mass spectrometry (UPLC-MS/MS; ACQUITY Xevo TQD UPLC QSM; Waters) in an ACQUITY BEH C18 column (1.7 µm, 2.1 × 50 mm; Waters). As mobile phase (0.6 mL/min flow rate) was used the following gradient of 0.1% formic acid in water (A) or in ACN (B): 95% A:5% B from 0 to 0.1 min, gradual increase to 100% B from 0.1 to 1 min, maintenance in 100% B from 1 to 2 min, return to 95% A:5% B from 2 to 2.1 min, and maintenance of this ratio from 2.1 to 2.5 min. Compound concentrations were calculated from the MS peak areas.

[5] = test system: L. infantum promastigote cultures; test: Protein aggregation assay in L. infantum cultures (ThT fluorescence); format: cell-based, Leishmania infantum; conditions: 0.15 and 0.3 µM YAT2150, 90 min and 4 h, promastigote culture extracts
Procedure: Ten milliliters of L. infantum promastigote cultures in the logarithmic growth phase at a concentration of 10^7 cells/mL in T-25 flasks (SPL Life Sciences, Pochon, Kyonggi-do, South Korea) was either treated with 0.15 µM or 0.3 µM YAT2150 or left untreated. After 90 min and 4 h of incubation, 1 mL of each culture was washed (3×, 1 mL PBS, 600 × g, 3 min) and the parasite-containing pellets were taken up in 100 µL of 4.5 mg/mL NaCl supplemented with 1× cOmplete protease inhibitor cocktail (Roche, Basel, Switzerland) and incubated overnight at 4°C with gentle stirring. After this time, samples were spun down (2,000 × g, 10 s) and the protein in each supernatant was quantified with the Pierce BCA protein assay kit (Thermo Electron Corporation, Waltham, MA, US). In a 96-well flat bottom black plate (Greiner Bio-One), 2 µg of protein from each supernatant was diluted in a final volume of 100 µL PBS in duplicates. Protein aggregation was measured by the addition of 25 µM ThT to each well, and after a 15-min incubation with gentle stirring, ThT fluorescence emission intensity was measured as detailed above.

P. falciparum = test system: P. falciparum; parameters: method as in PMID 36271358; conditions: read-out: IC50 in in vitro P. falciparum cultures; cited from earlier work

CCN(CC)c1ccc(/C=C/c2cc[n+](CCCCCCCCCC[n+]3ccc(/C=C/c4ccc(N(CC)CC)cc4)c(C)c3)cc2C)cc1 [YAT2150]
in vitro IC10 [1]: 150 nM
in vitro IC40 [1]: 300 nM
IC50 [1]: ~500 nM
IC50 ([1]; Leishmania infantum): ~520 nM
CC50 (in vitro [2]): 3400 ± 500 nM
solubility at 2 h [3]: 8.5 µM
% remaining, plasma stability (in vitro [4]; human plasma, after 6 h): 91.3%
remaining at 1 h, 5 µM (in vitro [4]; human, plasma, after 1 h, read-out: % remaining, plasma stability): 100%
remaining at 2 h, 5 µM (in vitro [4]; human, plasma, after 2 h, read-out: % remaining, plasma stability): 99.7%
remaining at 6 h, 5 µM (in vitro [4]; human, plasma, after 6 h, read-out: % remaining, plasma stability): 91%
overall aggregation of the parasite's proteins (ThT analysis) [5]: reduced
IC50 (P. falciparum): ~90 nM
